These results are taken from patent US7608408B2, “Methods of identifying compounds that inhibit Notch cleavage” (Bristol-Myers Squibb Company, priority 2005, dated 2009).

What all share (format): cell-based
The test system of one test is Notch. The experiment in a line: Notch cleavage assay. The conditions noted are these: n=252. From the text:
(§1) Any method for determining the ability of a compound to inhibit cleavage of γ-secretase substrates known in the art may be employed. For example, methods for assessing the ability of a compound to cleave APP are known. The ability of a compound to cleave APP may be assessed, for example, by measuring or detecting Aβ peptides (e.g., Aβ1-40, Aβ1-42; see, e.g., U.S. Published Application No. 2003/0215896).

Test [1] relates to HT29-L23 cells. Kind of test: Mucin-2 induction in HT29-L23 cells. Conditions: read-out: HT29-L23 IC50 (mucin-2 induction). As for the experimental part:
HT29 cells were seeded in 4 or 8 well slide chambers. 24 hours later, cells were treated for 72 hours in serum-free medium with either Compound Z (1 uM in DMSO) or DMSO at a final DMSO concentration of 0.1%. Treated cells were washed twice with PBS, fixed with 4% paraformaldehyde (10 min, RT) followed by methanol (2 min, −20° C.). Fixed cells were washed twice with PBS, incubated with PBS+0.5% TritonX100 for 10 min., washed twice with PBS and blocked for 2 hr in PBS containing 0.1% TritonX100, 2% BSA and 5% dry milk. Cells were stained with primary antibody against mucin-2, mucin-5AC, mucin-1, mucin-3, or mucin-6 by adding primary antibody in blocking buffer and incubating 1 hr, RT. […]
HT29 subclones were generated through limiting dilution. […] Mucin-2 positive cells were measured by FACS analysis (FIG. 2). […] Images were acquired on an ArrayScan™ system and analyzed for mucin-2 expression with the Target activation application (FIGS. 3A and 3B).
(§2) HeLa cells were transiently transfected with Notch-1 ΔE and the CBF1 luciferase reporter, and inhibition of Notch signaling by compounds known to inhibit γ-secretase was determined. Induction of mucin-2 in HT29-L23 cells was determined as in Example 1 for the same set of γ-secretase inhibitory compounds.

The subject of test [2] is HT29-L23 cells. Kind of test: Real time PCR of Notch pathway genes in HT29-L23 cells. The conditions noted are these: relative to DMSO, normalized to PPIA. Here is the method: HT29-L23 cells were treated with Compound Z or DMSO as described in Example 1. mRNA were isolated at indicated time points (FIGS. 5A-E) and analyzed by real time PCR with indicated Taqman probes (Applied Biosystems, Foster City, Calif.). Results were normalized relative to the amount of cyclophilin A (PPIA) mRNA for the same sample and were plotted as fold changes relative to DMSO treated sample at time zero. Statistical significance was determined by one-way ANOVA followed by Bonferroni's multiple comparison test performed within groups.
A general note: Real-time PCR tracks product formation cycle by cycle.

The subject of the next test is APP. Kind of test: APP cleavage assay (Aβ peptides). Conditions: n=166.
Source text: as §1

Test [3] concerns HT29-L23 cells. Kind of test: Mucin-2 induction in HT29-L23 cells transfected with NICD, AICD or control plasmid (High Content Screening). Conditions: 1 uM. Here is the method: HT29-L23 cells were transiently transfected with control plasmid (pcDNA-DsRed) or Myc epitope tagged Notch intracellular domain (NICD) (activated Notch-1) or APP intracellular domain (AICD) (activated APP). Cells were treated with Compound Z (1 uM in DMSO) or vehicle, and protein expression was analyzed by High Content Screening as described in Example 1. After staining with Mucin-2 and Myc antibodies, the transfected subpopulation of cells (Myc positive) were used for final analysis. Cells without DsRed expression were designated as control. Statistical significance was determined by one-way ANOVA followed by Bonferroni's multiple comparison test performed within and between groups.

The subject of the next test is HT29 cells. The experiment in a line: Mucin immunostaining in HT29 cells by microscopy. Conditions: 1 uM, 72 hours, serum-free medium. As for the experimental part: HT29 cells were seeded in 4 or 8 well slide chambers. 24 hours later, cells were treated for 72 hours in serum-free medium with either Compound Z (1 uM in DMSO) or DMSO at a final DMSO concentration of 0.1%. Treated cells were washed twice with PBS, fixed with 4% paraformaldehyde (10 min, RT) followed by methanol (2 min, −20° C.). Fixed cells were washed twice with PBS, incubated with PBS+0.5% TritonX100 for 10 min., washed twice with PBS and blocked for 2 hr in PBS containing 0.1% TritonX100, 2% BSA and 5% dry milk. Cells were stained with primary antibody against mucin-2, mucin-5AC, mucin-1, mucin-3, or mucin-6 by adding primary antibody in blocking buffer and incubating 1 hr, RT. Cells were washed 3× with PBS+0.1% TritonX100 and stained with an appropriate species-specific PE-, TRITC- or FITC-labeled secondary antibody for 30 min., RT. Cells were visualized through microscopy. γ-secretase inhibitor Compound Z induced mucin-2 and mucin-5AC (FIGS. 1A and 1B) but not mucin-1, mucin-3, or mucin-6 in HT29 cells.

Test [4] concerns Notch signaling (Notch-1 ΔE / CBF1 luciferase reporter). The experiment in a line: Inhibition of Notch signaling in HeLa cells transiently transfected with Notch-1 ΔE and CBF1 luciferase reporter. Conditions: Homo sapiens. As for the experimental part: as §2
Background: Reporter assays use an easily measured gene product as a stand-in for the process of interest.

Each structure is given as a SMILES string.

A word on the EC50: it is the concentration needed to bring the measured effect to its halfway point. A high value points to weaker potency. In general, IC50 refers to the concentration at which inhibition is half-maximal. Compound `C[C@H](NC(=O)[C@@H](O)c1cc(F)cc(F)c1)C(=O)N[C@@H]1C(=O)N(C)N=Cc2ccccc21` [Compound 1] registered an EC50 in the test with Notch of 2.1 nM. Moreover, the IC50 with HT29-L23 cells [1] is 11.9 nM. Also, in the test on HT29-L23 cells [2], the “Delta-1 mRNA” value is on record as “induced”, the “HES-1 mRNA” value is “downregulated”, the “Jagged-2 mRNA” value is “induced” and the “Math-1 mRNA” value is “induced”. Also, the “Mucin-2 mRNA” value in the test on HT29-L23 cells [2] is given as “induced”. For the same compound, it took 0.81 nM to reach a half-maximal effect in the test with APP (EC50). Besides, the “number of cells producing mucin-2” value in the test on HT29-L23 cells [3] (AICD (activated APP) transfected group) is reported as “increased”. In addition, the “number of cells producing mucin-2” value in the test with HT29-L23 cells [3] (Control group) is reported as “increased”. Also, in the test with HT29 cells, the mucin-1 induction result is listed as “not”, the mucin-2 induction entry is recorded as “induced”, the mucin-3 induction result is given as “not” and the mucin-5AC induction result is on record as “induced”. In the test with HT29 cells, the mucin-6 induction result is “not”. Further, 4.59 nM corresponded to half-maximal inhibition in test [4] (IC50).
